We go through ten compounds from patent US20220257774A1, “AROMATIC AMINE AR AHD BET TARGETING PROTEIN DEGRADATION CHIMERA COMPOUND AND USE” (HINOVA PHARMACEUTICALS INC., priority 2019, published 2022).

In the first assay the test system is LNCaP/AR cells. Description: Inhibition of the proliferation of LNCap/AR cells (CCK-8). Conditions: 144 h; LNCaP/AR cells, 6 days culture, CCK-8; read-out: LNCap/AR IC50. Format: cell-based. The text has this:
1. Biological Assay of the Inhibition on the Proliferation of LNCap/AR Cells
(1) Experimental materials and instruments: LNCaP/AR cell line and 22RV1 cell line (provided by Sichuan Kangcheng Biotechnology Co., Ltd.) Fetal bovine serum FBS (Gibco, Cat. No. 10099-141) 0.01M PBS (Biosharp, Cat. No. 162262) RIPM1640 medium (Hyclone, Cat. No. 308090.01) Penicillin-Streptomycin (Hyclone, Cat. No. SV30010) Cell counting kit-8 (Signalway Antibody, Cat. No. CP002) DMSO (Sigma, Cat. No. D5879) Centrifuge Tube, 15 ml (Excell Bio, Cat. No. CS015-0001) Cell Culture Dish, (Excell Bio, Cat. No. CS016-0128) 96-well cell culture plate (Corning, Cat. No. 3599) Microplate reader (Thermo Multiskan MK3 type)
(2) Experimental Methods:
a. Preparation of Buffer Cell culture medium: RIPM1640 medium, 10% FBS, 1% Pen Strep: PBS buffer: PBS powder was dissolved in 2 L of ultrapure water and sterilized. b. Experimental Procedures 1) LNCaP/AR cells were subcultured in cell culture media, and then the cells in good growth condition were seeded in a 96-well plate at 80 μL/well (1000 cells/well), and cultured overnight in a 37° C., 5% CO2 cell incubator. 2) The drug was prepared into a 10 mM stock solution with dimethyl sulfoxide (DMSO). Prior to use, the stock solution was diluted in a ratio of […] with DMSO, and then diluted at a 3-fold gradient to obtain 9 serial concentrations. Then, each concentration of compound was further diluted in a ratio of 1:200 with the culture medium (to ensure that the DMSO concentration in the culture system was 0.1%), and two wells were set for each concentration. 20 μL of the diluted compound solution was added to the well of the cell culture (with a final concentration of 10 μM, 3.3 μM, 1.1 μM . . . ), and then the plate was gently tapped to thoroughly mix. In addition, the experiment included 3 negative control wells only containing cells and 3 blank control wells only containing culture medium (6 wells were each added with DMSO diluted in a ratio of 1:200 with 20 μL of culture medium). c. Result Detection: 1) After culturing for 6 days, 10 μL of CCK-8 was added to each well, and the plate was further incubated for 1 h in a 37° C., 5% CO2 cell incubator. 2) The absorbance (OD value) was measured at 450 nm with a multifunctional microplate reader. 3) The data was analyzed by the Dose-response-inhibition equation in the software GraphPad Prism5, and the IC50 value was obtained. 2. Biological assay of the inhibition on the proliferation of other drug-resistant prostate cancer cells
As for `CC(=O)O[C@@H]1C[C@@H](C(=O)N[C@@H](C)c2ccc(-c3scnc3C)cc2)N(C(=O)[C@@H](NC(=O)COCCCCCCN(c2ccc(-n3ccnc3)cc2)c2cc(-c3c(C)noc3C)ccc2C)C(C)(C)C)C1` [Compound 5, (3R,5S)-1-((S)-2-(2-((6-((4-(1H-imidazol-1-yl)phenyl)(5-(3,5-Dimethylisoxazol-4-yl)-2-methylphenyl)amino)n-hexyl)oxy)acetylamino)-3,3-dimethylbutyryl)-5-(((S)-1-(4-(4-methylthiazol-5-yl)phenyl)ethyl)formylamino)pyrrolidinyl-3-acetate], the IC50 was over 2 µM.
On the same count and under the same terms, the same measure for `Cc1ccc(-c2c(C)noc2C)cc1N(CCCCCCOCC(=O)N[C@H](C(=O)N1C[C@H](O)C[C@H]1C(=O)N[C@@H](C)c1ccc(-c2scnc2C)cc1)C(C)(C)C)c1ccc(-n2ccnc2)cc1` [Compound 6, (2S,4R)-1-((S)-2-(2-((6-((4-(1H-imidazol-1-yl)phenyl)(5-(3,5-Dimethylisoxazol-4-yl)-2-methylphenyl)amino)n-hexyl)oxy)acetylamino)-3,3-dimethylbutyryl)-4-hydroxy-N—((S)-1-(4-(4-methylthiazol-5-yl)phenyl)ethyl)pyrrolidinyl-2-formamide]: 0.501 to 2 µM; for `CC(=O)O[C@@H]1C[C@@H](C(=O)N[C@@H](C)c2ccc(-c3scnc3C)cc2)N(C(=O)[C@@H](NC(=O)COCCCCCCCN(c2ccc(-n3ccnc3)cc2)c2cc(-c3c(C)noc3C)ccc2C)C(C)(C)C)C1` [Compound 7]: over 2 µM; for `Cc1ccc(-c2c(C)noc2C)cc1N(CCCCCCCOCC(=O)N[C@H](C(=O)N1C[C@H](O)C[C@H]1C(=O)N[C@@H](C)c1ccc(-c2scnc2C)cc1)C(C)(C)C)c1ccc(-n2ccnc2)cc1` [Compound 8]: 0.501 to 2 µM.
On the same count and under the same terms, next, `CC(=O)O[C@@H]1C[C@@H](C(=O)N[C@@H](C)c2ccc(-c3scnc3C)cc2)N(C(=O)[C@@H](NC(=O)COCCCCCN(c2ccc(-n3ccnc3)c(Cl)c2)c2cc(-c3c(C)noc3C)ccc2C)C(C)(C)C)C1` [Compound 11, (3R,5S)-1-((S)-2-(2-((5-((3-chloro-4-(1H-imidazol-1-yl)phenyl)(5-(3,5-dimethylisoxazol-4-yl)-2-methylphenyl)amino)n-pentyl)oxy)acetylamino)-3,3-dimethylbutyryl)-5-(((S)-1-(4-(4-methylthiazol-5-yl)phenyl)ethyl)formylamino)pyrrolidinyl-3-acetate]: 0.501 to 2 µM.

Still in this assay, the particulars now being: LNCaP/AR cells, 6 days culture, CCK-8; read-out: LNCap/AR IC50.
For `CC(=O)O[C@@H]1C[C@@H](C(=O)N[C@@H](C)c2ccc(-c3scnc3C)cc2)N(C(=O)[C@@H](NC(=O)COCCCCCN(c2ccc(-n3ccnc3)c(Br)c2)c2cc(-c3c(C)noc3C)ccc2C)C(C)(C)C)C1` [Compound 9, (3R,5S)-1-((S)-2-(2-((5-((3-bromo-4-(1H-imidazol-1-yl)phenyl)(5-(3,5-dimethylisoxazol-4-yl)-2-methylphenyl)amino)n-pentyl)oxy)acetylamino)-3,3-dimethylbutyryl)-5-(((S)-1-(4-(4-methylthiazol-5-yl)phenyl)ethyl)formylamino)pyrrolidinyl-3-acetate], the IC50 was in the range of 0.501 to 2 µM.

Still in this assay, the particulars now being: LNCaP/AR, 144 h, read-out: LNCap/AR IC50.
Regarding `CCN(c1ccc(C#N)c(Cl)c1)c1cc(-c2c(C)nn(CCCCCOCC(=O)N[C@H](C(=O)N3C[C@H](O)C[C@H]3C(=O)N[C@@H](C)c3ccc(-c4scnc4C)cc3)C(C)(C)C)c2C)ccc1C` [Compound 1], the IC50 was over 2 µM.
Still for that read-out and setting: the same measure for `CCN(c1ccc(C#N)c(Cl)c1)c1cc(-c2nn(CCCCCOCC(=O)N[C@H](C(=O)N3C[C@H](O)C[C@H]3C(=O)N[C@@H](C)c3ccc(-c4scnc4C)cc3)C(C)(C)C)cc2C)ccc1C` [Compound 2]: over 2 µM.
The same measure, in the same setting: the same measure for `CC(=O)O[C@@H]1C[C@@H](C(=O)N[C@@H](C)c2ccc(-c3scnc3C)cc2)N(C(=O)[C@@H](NC(=O)COCCCCCN(c2ccc(C#N)c(Cl)c2)c2cc(-c3c(C)noc3C)ccc2C)C(C)(C)C)C1` [Compound 3]: 0.101 to 0.5 µM.
On the same count and under the same terms, next, `CC(=O)O[C@@H]1C[C@@H](C(=O)N[C@@H](C)c2ccc(-c3scnc3C)cc2)N(C(=O)[C@@H](NC(=O)COCCCCCN(c2ccc(C#N)c(C(F)(F)F)c2)c2cc(-c3c(C)noc3C)ccc2C)C(C)(C)C)C1` [Compound 4]: over 2 µM.
